Experimental data as given in paper PMC4352280, “Bioactivity guided fractionation and hypolipidemic property of a novel HMG-CoA reductase inhibitor from Ficus virens Ait” (Lipids in Health and Disease, 2015).

Biological target: T1, HMG-CoA reductase (Homo sapiens, UniProt P04035)
T1 construct: gene HMGCR; catalytic domain of the human enzyme (recombinant GST fusion protein expressed in E. coli)
T1 sequence (P04035 426-888 limits assumed): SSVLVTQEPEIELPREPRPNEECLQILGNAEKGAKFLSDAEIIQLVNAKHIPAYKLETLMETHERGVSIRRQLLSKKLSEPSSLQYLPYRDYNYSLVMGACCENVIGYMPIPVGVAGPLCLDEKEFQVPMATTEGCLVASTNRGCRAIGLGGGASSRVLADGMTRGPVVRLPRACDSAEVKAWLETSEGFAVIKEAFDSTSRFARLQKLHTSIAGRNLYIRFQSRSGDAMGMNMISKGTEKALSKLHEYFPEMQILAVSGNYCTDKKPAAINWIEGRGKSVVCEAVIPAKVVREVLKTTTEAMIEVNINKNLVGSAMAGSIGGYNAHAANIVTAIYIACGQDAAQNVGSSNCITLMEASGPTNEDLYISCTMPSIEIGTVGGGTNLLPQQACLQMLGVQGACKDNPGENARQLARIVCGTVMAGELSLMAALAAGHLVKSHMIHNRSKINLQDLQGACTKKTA
Experiment: spectrophotometric HMG-CoA reductase assay; Lineweaver-Burk and Dixon plots
Assay type: biochemical

IC50: 141 nM
Structure (SMILES): CCCCCCCCCCCCCCCCCCO[C@H]1O[C@H](CO[C@H]2O[C@H](CO)[C@@H](O)[C@H](O)[C@H]2O)[C@@H](O)[C@H](O)[C@H]1O [F18, n-Octadecanyl-O-α-D-glucopyranosyl(6′ → 1″)-O-α-D-glucopyranoside]
